Source: ChEMBL document CHEMBL1201862, “PubChem BioAssay data set” (2004)
Blank lines part the entries; values can stand above or below the molecule they belong to. The source made the active and inactive calls.

How the values were obtained:
[1] = molecular target: Sphingosine 1-phosphate receptor 2 (Homo sapiens, UniProt O95136); assay: Dose Response Cell Based Assay for Antagonists of the S1P2 Receptor. [Related pubchem assays: 856, 736 ]; type: functional
Streptococcus = assay: GAS UMAA2166 growth inhibition – luminescence, BacTiterGlo, counter-screen for streptokinase expression inhibitor project, dose response (AID 1915); type: functional, organism-based;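 also: potency for reduction of bacterial viability or growth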
[2] = molecular target: Intestinal-type alkaline phosphatase (Homo sapiens, UniProt P09923); assay: inhibition of human intestinal alkaline phosphatase – biochemical, dose response (AID 488876); type: functional
Leucine aminopeptidase = molecular target: T1, Leucine aminopeptidase (Plasmodium falciparum 3D7, UniProt Q8IL11); assay: P. falciparum M17LAP inhibitors, primary screen, biochemical, fluorogenic H-Leu-NHMec substrate, 1536-well (AID 1619); type: functional
T1 sequence (Q8IL11 whole entry): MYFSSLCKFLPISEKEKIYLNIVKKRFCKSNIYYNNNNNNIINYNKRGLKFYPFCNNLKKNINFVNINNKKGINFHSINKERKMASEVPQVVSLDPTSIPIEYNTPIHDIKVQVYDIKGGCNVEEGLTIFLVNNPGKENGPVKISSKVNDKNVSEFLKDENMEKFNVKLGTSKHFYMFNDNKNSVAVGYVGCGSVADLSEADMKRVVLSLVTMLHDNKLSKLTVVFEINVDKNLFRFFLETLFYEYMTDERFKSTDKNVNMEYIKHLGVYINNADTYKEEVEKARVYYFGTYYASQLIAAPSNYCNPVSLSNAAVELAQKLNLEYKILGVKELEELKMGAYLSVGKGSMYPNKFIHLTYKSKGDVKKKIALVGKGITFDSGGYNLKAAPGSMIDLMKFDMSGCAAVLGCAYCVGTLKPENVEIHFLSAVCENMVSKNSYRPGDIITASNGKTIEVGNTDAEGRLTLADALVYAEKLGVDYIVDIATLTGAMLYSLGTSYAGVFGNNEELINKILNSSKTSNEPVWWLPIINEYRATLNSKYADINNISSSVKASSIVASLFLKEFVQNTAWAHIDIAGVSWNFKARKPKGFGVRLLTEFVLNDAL

[3] = molecular target: 3-phosphoinositide-dependent protein kinase 1 (Homo sapiens, UniProt O15530); type: functional;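 also: value comes from the Navigating the Kinome panel, PDPK1 member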
[4] = molecular target: Tyrosine-protein kinase Fer (Homo sapiens, UniProt P16591); type: functional;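 also: FER tested as one member of a kinome panel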
LIM domain kinase 1 = LIM domain kinase 1 (Homo sapiens, UniProt P53667); assay: Navigating the Kinome. Panel member name: LIMK1; type: functional
[5] = molecular target: Tyrosine-protein kinase ITK/TSK (Homo sapiens, UniProt Q08881); type: functional;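 also: affinity for ITK measured as one member of a broad kinase panel profiling binding across the kinome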
[6] = molecular target: Serine/threonine-protein kinase Nek4 (Homo sapiens, UniProt P51957); type: functional
[7] = molecular target: Insulin-like growth factor 1 receptor (Homo sapiens, UniProt P08069); assay: Navigating the Kinome. Panel member name: IGF1R; type: functional
[8] = molecular target: Serine/threonine-protein kinase PAK 4 (Homo sapiens, UniProt O96013); type: functional;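 also: value obtained within a kinome profiling panel in which PAK4 was one of the panel members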
[9] = molecular target: Homeodomain-interacting protein kinase 4 (Homo sapiens, UniProt Q8NE63); type: functional
[10] = molecular target: MAP/microtubule affinity-regulating kinase 3 (Homo sapiens, UniProt P27448); type: functional;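 also: MARK3 affinity measured as one member of a kinome panel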
[11] = molecular target: Tyrosine-protein kinase BTK (Homo sapiens, UniProt Q06187); type: functional
[12] = molecular target: Dual specificity protein kinase CLK4 (Homo sapiens, UniProt Q9HAZ1); type: functional
[13] = molecular target: Serine/threonine-protein kinase pim-3 (Homo sapiens, UniProt Q86V86); type: functional;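 also: value obtained as one member of a broad kinase panel profiling effort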
[14] = molecular target: Tyrosine-protein kinase JAK2 (Homo sapiens, UniProt O60674); type: functional;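 also: JAK2 tested as one member of a kinase panel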
[15] = molecular target: Ribosomal protein S6 kinase alpha-5 (Homo sapiens, UniProt O75582); type: functional
[16] = molecular target: Fibroblast growth factor receptor 1 (Homo sapiens, UniProt P11362); type: functional
[17] = molecular target: Phosphorylase b kinase gamma catalytic chain, liver/testis isoform (Homo sapiens, UniProt P15735); type: functional;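 also: PHKG2 measured as one member of a kinome-wide kinase panel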
[18] = molecular target: Cyclin-dependent kinase 7 (Homo sapiens, UniProt P50613); type: functional;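 also: value comes from a kinome-wide kinase profiling panel in which CDK7 is one member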
[19] = molecular target: Serine/threonine-protein kinase PLK1 (Homo sapiens, UniProt P53350); type: functional;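 also: PLK1 measured as one member of a kinome-wide profiling panel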
[20] = molecular target: MAP kinase-activated protein kinase 3 (Homo sapiens, UniProt Q16644); type: functional;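 also: value comes from a kinome-wide profiling panel in which MAPKAPK3 is one of the panel members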
[21] = viability loss in THP-1 monocytes – THP-1 cells, cytotoxicity control for Vif-APOBEC3G degradation inhibitor project, dose response (AID 1117359); type: functional; settings: THP-1

Sequence of Tyrosine-protein kinase BTK (Q06187 whole entry): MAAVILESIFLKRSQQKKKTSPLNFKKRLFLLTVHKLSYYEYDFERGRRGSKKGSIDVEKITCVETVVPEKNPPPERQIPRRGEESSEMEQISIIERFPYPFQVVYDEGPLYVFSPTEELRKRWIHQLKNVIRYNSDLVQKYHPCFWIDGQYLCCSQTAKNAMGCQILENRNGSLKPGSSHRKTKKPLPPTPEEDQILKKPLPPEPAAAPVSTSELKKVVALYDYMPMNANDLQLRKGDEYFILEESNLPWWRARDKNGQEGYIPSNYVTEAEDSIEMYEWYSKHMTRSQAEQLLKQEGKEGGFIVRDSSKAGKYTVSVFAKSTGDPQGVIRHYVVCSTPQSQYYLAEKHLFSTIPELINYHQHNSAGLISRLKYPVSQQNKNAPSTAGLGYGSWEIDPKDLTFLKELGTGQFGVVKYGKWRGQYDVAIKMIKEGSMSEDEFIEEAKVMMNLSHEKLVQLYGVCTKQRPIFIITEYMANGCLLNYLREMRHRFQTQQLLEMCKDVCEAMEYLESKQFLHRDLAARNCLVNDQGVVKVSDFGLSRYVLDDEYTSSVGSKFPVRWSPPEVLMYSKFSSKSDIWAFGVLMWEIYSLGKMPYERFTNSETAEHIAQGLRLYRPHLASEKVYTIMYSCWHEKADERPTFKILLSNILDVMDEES
Sequence of Fibroblast growth factor receptor 1 (P11362 whole entry, canonical isoform): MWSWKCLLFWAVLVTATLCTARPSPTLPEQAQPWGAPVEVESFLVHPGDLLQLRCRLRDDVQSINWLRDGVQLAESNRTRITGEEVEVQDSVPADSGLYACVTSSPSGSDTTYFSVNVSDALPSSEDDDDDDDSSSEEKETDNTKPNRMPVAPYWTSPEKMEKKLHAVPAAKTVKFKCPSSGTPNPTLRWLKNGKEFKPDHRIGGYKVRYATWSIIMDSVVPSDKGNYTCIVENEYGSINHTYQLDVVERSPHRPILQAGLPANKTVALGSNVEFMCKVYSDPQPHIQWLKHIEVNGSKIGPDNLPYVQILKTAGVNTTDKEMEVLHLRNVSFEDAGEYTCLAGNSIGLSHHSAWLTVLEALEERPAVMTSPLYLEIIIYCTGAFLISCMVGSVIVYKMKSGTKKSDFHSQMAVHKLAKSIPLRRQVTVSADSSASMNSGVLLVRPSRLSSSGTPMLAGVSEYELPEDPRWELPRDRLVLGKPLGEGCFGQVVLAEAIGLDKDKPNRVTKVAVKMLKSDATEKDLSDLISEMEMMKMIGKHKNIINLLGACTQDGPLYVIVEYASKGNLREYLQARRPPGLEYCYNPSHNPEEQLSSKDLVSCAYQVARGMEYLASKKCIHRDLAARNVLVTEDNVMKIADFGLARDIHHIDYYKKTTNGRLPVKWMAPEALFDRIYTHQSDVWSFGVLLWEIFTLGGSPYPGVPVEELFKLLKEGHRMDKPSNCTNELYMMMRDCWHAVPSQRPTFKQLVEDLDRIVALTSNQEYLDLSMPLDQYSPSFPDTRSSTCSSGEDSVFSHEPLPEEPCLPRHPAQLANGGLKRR
Sequence of Ribosomal protein S6 kinase alpha-5 (O75582 whole entry): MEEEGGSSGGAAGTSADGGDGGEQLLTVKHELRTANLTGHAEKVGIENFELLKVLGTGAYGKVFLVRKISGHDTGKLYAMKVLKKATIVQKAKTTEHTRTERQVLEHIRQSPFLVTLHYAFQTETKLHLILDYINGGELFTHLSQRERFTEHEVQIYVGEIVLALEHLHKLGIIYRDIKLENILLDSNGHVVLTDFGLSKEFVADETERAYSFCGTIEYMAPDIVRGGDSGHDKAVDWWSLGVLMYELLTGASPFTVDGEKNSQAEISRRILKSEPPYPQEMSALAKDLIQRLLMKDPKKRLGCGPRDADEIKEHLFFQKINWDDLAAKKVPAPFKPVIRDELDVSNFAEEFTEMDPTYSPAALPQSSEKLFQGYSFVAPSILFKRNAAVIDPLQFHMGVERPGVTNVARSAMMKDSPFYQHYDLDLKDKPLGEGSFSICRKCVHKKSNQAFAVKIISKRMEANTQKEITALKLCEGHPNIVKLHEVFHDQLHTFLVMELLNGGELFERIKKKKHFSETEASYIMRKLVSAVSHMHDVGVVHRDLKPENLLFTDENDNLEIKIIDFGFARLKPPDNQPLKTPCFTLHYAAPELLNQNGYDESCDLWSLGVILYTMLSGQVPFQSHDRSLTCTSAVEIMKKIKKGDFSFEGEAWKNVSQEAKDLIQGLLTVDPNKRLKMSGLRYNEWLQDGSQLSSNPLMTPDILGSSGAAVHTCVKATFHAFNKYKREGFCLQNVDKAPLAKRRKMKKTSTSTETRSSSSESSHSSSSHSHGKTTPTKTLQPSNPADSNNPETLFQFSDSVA
Sequence of Phosphorylase b kinase gamma catalytic chain, liver/testis isoform (P15735 whole entry, canonical isoform): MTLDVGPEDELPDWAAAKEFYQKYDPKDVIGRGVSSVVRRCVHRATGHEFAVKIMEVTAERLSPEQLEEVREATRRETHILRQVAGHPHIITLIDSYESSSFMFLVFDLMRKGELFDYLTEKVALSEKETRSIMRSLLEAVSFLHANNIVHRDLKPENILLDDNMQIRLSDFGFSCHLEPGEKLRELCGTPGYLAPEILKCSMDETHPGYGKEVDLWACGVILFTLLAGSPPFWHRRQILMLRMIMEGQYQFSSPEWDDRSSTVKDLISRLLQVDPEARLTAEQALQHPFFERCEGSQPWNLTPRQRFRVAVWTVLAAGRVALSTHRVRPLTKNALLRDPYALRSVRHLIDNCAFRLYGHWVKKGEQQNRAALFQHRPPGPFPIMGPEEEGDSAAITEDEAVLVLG
Sequence of MAP kinase-activated protein kinase 3 (Q16644 whole entry): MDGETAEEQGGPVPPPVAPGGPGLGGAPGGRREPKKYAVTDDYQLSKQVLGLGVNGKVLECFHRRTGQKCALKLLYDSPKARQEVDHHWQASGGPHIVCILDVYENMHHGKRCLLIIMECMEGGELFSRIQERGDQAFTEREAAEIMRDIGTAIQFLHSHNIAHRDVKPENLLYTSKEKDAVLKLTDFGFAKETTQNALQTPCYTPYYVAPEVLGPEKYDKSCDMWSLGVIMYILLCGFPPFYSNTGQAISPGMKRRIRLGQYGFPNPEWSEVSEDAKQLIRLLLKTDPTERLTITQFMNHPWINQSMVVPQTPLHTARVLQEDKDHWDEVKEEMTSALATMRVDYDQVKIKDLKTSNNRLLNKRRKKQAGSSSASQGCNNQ
Sequence of Tyrosine-protein kinase Fer (P16591 whole entry, the tested form may be a part): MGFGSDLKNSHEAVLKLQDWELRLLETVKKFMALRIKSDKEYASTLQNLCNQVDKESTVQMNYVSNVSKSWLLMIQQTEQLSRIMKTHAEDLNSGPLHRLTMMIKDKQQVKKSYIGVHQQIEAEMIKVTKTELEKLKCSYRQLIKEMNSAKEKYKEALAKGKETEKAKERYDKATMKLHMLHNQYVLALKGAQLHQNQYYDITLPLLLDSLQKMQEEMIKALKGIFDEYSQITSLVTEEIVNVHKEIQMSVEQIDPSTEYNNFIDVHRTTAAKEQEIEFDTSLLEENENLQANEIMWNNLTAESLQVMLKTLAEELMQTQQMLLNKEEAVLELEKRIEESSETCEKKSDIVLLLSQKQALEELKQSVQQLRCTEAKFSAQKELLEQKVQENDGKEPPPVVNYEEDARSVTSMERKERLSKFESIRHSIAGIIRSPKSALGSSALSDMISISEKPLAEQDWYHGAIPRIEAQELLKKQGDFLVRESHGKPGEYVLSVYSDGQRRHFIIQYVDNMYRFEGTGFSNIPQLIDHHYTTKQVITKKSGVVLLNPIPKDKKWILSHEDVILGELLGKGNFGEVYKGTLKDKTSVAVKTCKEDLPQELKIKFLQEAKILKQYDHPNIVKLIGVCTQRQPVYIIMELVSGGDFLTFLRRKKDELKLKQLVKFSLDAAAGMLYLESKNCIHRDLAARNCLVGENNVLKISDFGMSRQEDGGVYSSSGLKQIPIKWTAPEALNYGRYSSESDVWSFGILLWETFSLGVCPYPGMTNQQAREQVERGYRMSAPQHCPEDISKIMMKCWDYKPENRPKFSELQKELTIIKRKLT
Sequence of Tyrosine-protein kinase ITK/TSK (Q08881 whole entry): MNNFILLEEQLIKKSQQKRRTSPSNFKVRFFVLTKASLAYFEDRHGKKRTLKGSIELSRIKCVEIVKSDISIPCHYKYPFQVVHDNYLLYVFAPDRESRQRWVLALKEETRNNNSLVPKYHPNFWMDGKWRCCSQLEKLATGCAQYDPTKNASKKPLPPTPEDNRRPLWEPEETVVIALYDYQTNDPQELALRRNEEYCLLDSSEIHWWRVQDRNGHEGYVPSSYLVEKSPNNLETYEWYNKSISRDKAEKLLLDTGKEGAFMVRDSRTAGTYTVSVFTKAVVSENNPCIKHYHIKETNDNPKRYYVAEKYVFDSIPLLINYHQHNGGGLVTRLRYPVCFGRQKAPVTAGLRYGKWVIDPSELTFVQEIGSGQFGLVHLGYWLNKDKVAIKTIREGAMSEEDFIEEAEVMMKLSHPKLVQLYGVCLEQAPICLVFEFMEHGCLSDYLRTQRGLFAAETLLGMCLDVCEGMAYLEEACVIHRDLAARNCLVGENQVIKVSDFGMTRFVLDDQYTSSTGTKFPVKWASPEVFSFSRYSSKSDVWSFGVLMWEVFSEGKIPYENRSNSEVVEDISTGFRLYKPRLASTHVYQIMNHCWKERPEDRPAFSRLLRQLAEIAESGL

Compound: COC(=O)C1CN(C#N)N(c2ccc(Cl)cc2)C12c1ccccc1-c1ccccc12 (centres undefined)
IC50 [1]: 2.79 µM (active) | EC50 (Streptococcus): 20.7 µM (active)

IC50 [2]: > 100 µM (inactive) | IC50 (Leucine aminopeptidase): 20.5 µM (active)
Compound: O=C(NN1C(=O)CSC1=S)C(=O)NN1C(=O)CSC1=S

Ki [3]: > 3.98 µM (inactive) | Ki [4]: > 1.58 µM (inactive) | Ki (LIM domain kinase 1): 2.51 µM (active) | Ki [5]: > 1.58 µM (inactive) | Ki [6]: > 6.31 µM (inactive) | Ki [7]: > 2 µM (inactive) | Ki [8]: > 5.01 µM (inactive) | Ki [9]: > 7.94 µM (inactive) | Ki [10]: > 6.31 µM (inactive) | Ki [11]: > 39.8 µM (inactive) | Ki [12]: 1.26 µM (active) | Ki [13]: > 7.94 µM (inactive) | Ki [14]: > 1.58 µM (inactive) | Ki [15]: 0.631 µM (active) | Ki [16]: 15.8 µM (active) | Ki [17]: > 5.01 µM (inactive) | Ki [18]: 20 µM (active) | Ki [19]: > 7.94 µM (inactive) | Ki [20]: > 10 µM (inactive)
Compound: Nc1noc2cccc(-c3cccc(O)c3)c12

Compound: O=C1NC(=S)S/C1=C\C=C\c1ccc([N+](=O)[O-])o1
CC50 [21]: 4.04 µM (active)
